Consider 3 compounds from US20100216761A1, “NOVEL AZETIDINONES USEFUL AS INHIBITORS OF ELASTASE” (priority 2007, published 2010).

A short description of data set [1]: Liver microsome stability in 4 species: human. Format: in vitro ADME. Conditions: substrate 0.5 uM, microsome 0.25 mg/mL. As for the experimental part: (§1) In a separate experiment as exemplified in Table 3, the stability of the current Example 1 and the comparator Compound #290 in incubations with microsome preparations from 4 different species were also determined (Note 5).
(§2) X. S. Tong, et. al., J. of Chromatography, 2006, 833, 165.

The nature of data set [2]: Liver microsome stability in 4 species: dog. Format: in vitro ADME. The note with it: substrate 0.5 uM, microsome 0.25 mg/mL. The method, then:
as §1, §2

Data set [3] in a line: Liver microsome stability in 4 species: rat. The data set is classed as in vitro ADME. The note with it: substrate 0.5 uM, microsome 0.25 mg/mL. The method, then: as §1, §2
Data set [4] in a line: Liver microsome stability in 4 species: monkey. Conditions: substrate 0.5 uM, microsome 0.25 mg/mL. Format: in vitro ADME. The method, then: as §1, §2
Data set [5] addresses T1, CYP-P450 2C9 (Homo sapiens, UniProt P11712).
T1 construct: host or cells: human liver microsomes or recombinant P450 microsomes
In words: CYP-P450 reversible inhibition, 2C9. Format: in vitro ADME. Conditions: human liver microsomes or recombinant P450 microsomes; fluorescent probe. As for the experimental part:
(§3) This assay measured the reversible inhibition of the test compounds against three cytochrome P450 isozymes (CYP-P450 3A4, 2C9 and 2D6) in an automated screening formate. […] Cumene hydroperoxide, NADPH or NADPH regenerating systems can be used as electron donors for the P450 catalytic cycle. Control incubations containing no inhibitor or no fluorescent probe were performed to evaluate the 100% and 0% activities, respectively. The activity of P450 enzyme was evaluated in the presence of 0.137, 0.273, 0.547, 1.094, 2.188, 4.375, 8.750, 17.5, 35.0 and 70.0 μM concentrations of the test compounds. Inhibition curves were generated and IC50 values were calculated for each tested compound using standard techniques.

For data set [6], the target named is T2, CYP2C9 (Homo sapiens, UniProt P11712).
T2 construct: host or cells: human liver microsomes or recombinant P450 microsomes
In words: CYP-P450 reversible inhibition, 2C9. Format: in vitro ADME. The note with it: probe fluorogenic probe (not named); human liver microsomes or recombinant P450 microsomes; fluorescent probe. The method, then: as §3

Data set [7] concerns the target T3, CYP2D6 (Homo sapiens, UniProt P10635).
T3 construct: host or cells: human liver microsomes or recombinant P450 microsomes
The experiment in a line: CYP-P450 reversible inhibition, 2D6. Format: in vitro ADME. The note with it: probe fluorogenic probe (not named); human liver microsomes or recombinant P450 microsomes; fluorescent probe. As for the experimental part: as §3

Data set [8] relates to human CYP-3A4 enzyme. The experiment in a line: P450 CYP-3A4 induction. Conditions: test compound 10 μM vs Rifampicin 10 μM (defined as 100%). The data set is classed as in vitro ADME. The method, then:
This assay measured the in vitro induction of the human CYP-3A4 enzyme in the presence of 0.37, 1.11, 3.33, 10 and 30 μM test compound in an automated formate. The results are expressed as the relative percent induction measured for test compound at the 10 μM concentration compared to the known inducer standard Rifampicin at 10 μM (defined as 100%). (See Durocher, et. al., Anal. Biochem. 2000, 284, 316 for details of the assay).

The nature of data set [9]: Rat pharmacokinetics. Format: in vivo, Sprague-Dawley rats. Conditions: for Vd / clearance / half-life / AUCN, i.v. dosing @ 1 mpk: iv, 1 mg/kg; for AUCN, p.o. dosing @ 2 mpk: po, 2 mg/kg. As for the experimental part:
As exemplified in Table 7, the in vivo pharmacokinetic profiles for Examples 1 and 3 and the comparator Compound #290 were determined in the rat at the standard screening doses of 1 mpk i.v. and 2 mpk p.o. (Note 10).
Compounds were formulated as their mono-L-malic acid salts at 1 mg/mL in PEG-200:water 70:30 (v:v) and administered to Sprague-Dawley rats (n=2 for i.v. and n=3 for p.o. arms) at a dose of 1 mg/kg i.v. or 2 mgk p.o. (free base equivalent). Blood samples were taken at 0.03, 0.08, 0.25, 0.50, 1, 2, 4, 6, 8 and 24 hours for the i.v. arm and at 0.25, 0.50, 1, 2, 4, 6, 8 and 24 hours for the p.o. arm. The plasma concentrations of test compound at each time point were determined by protein precipitation with acetonitrile followed by liquid chromatography—tandem mass spectrometry versus a standard curve. The PK parameters were calculated using validated techniques known in the literature (see Stedman's Medical Dictionary, 23rd ed.).

The nature of data set [10]: Rat 7 day oral dose limiting toxicity assessment. The data set is classed as in vivo. Conditions: for mortality: 750 mpk dose group, n=5 per group; for NO Effect Level (NOEL): in vivo, po, 7 days; for Dose limiting toxicity assessment, 25 mpk: p.o. 25 mg per kg per day for 7 days; for Dose limiting toxicity assessment, 25 mpk / Dose limiting toxicity assessment, 100 mpk / Dose limiting toxicity assessment, 750 mpk: mono-L-malic acid salts; for Dose limiting toxicity assessment, 100 mpk: p.o. 100 mg per kg per day for 7 days; for Dose limiting toxicity assessment, 750 mpk: p.o. 750 mg per kg per day for 7 days; for physical signs of toxicity: p.o. 100 mpk dose for 7 days. As for the experimental part:
The observations summarized in Table 8 indicate that both Example 1 and Compound #290 have the same NO Effect Level in a Dose Limiting Toxicity assay in the rat (NOEL=100 mpk/day for 7 days for both) (Note 11), and would argue against the use of higher doses of Compound #290 to achieve the same plasma exposure as Example 1 in the clinic.
Example 1 and Compound #290 as their mono-L-malic acid salts were formulated in 0.5% Methocel and dosed p.o. at 25, 100 and 750 mg per k per day (free base equivalent) for 7 days (n=5 animals in each group). During the dosing period observation of any physical signs of toxicity were noted. Upon termination on day 8, a standard battery of blood chemistry and tissue analyses were performed and evaluated for significant effects compared to vehicle controls. […] At the 750 mpk dose level several adverse effects were observed including mortality (⅖ for Example 1 on Day 7 and 8 in the 750 mpk dose group; ⅕ on day 4 for Compound #290 in the 750 mpk dose group).

The target in data set [11] is T4, CYP3A4 (Homo sapiens, UniProt P08684).
Procedure: This assay measured the pre-incubation time-dependent inhibition of potential CYP-3A4 inhibitors in human liver microsomes using the CYP-3A4 mediated testosterone 6-beta-hydroxylation formate in the presence of test compounds in a semi-automated screening using LC-MS/MS detection. Test compounds are pre-incubated at 37° C. with human liver microsomes (2.5 mg/mL protein) and a NADPH regenerating system for 10, 20, 30 and 40 minutes prior to a ten-fold dilution with a 250 μM solution of testosterone. The diluted reaction is then incubated for 15 minutes at 37° C. The concentration of 6-β-hydroxytestosterone metabolite formed is measured by LC-MS/MS using validated analytical methods. The percent activity remaining is calculated by comparing the amount of marker metabolite formed in the presence of inhibitor compared to no inhibitor control samples at corresponding time points. No inhibitor control samples represent the maximum amount of 6-β-hydroxytestosterone formed under these assay conditions.
For data set [12], the target named is T4, CYP3A4. The experiment in a line: CYP-P450 reversible inhibition, 3A4. The note with it: probe fluorogenic probe (not named); human liver microsomes or recombinant P450 microsomes; fluorescent probe. Format: in vitro ADME. Set-up: host or cells: human liver microsomes or recombinant P450 microsomes. The method, then: as §3

Like-named read-outs stand apart in the source and are kept apart here. Where only a bound is given, the exact number is not on record here.

T4 sequence (P08684 whole entry): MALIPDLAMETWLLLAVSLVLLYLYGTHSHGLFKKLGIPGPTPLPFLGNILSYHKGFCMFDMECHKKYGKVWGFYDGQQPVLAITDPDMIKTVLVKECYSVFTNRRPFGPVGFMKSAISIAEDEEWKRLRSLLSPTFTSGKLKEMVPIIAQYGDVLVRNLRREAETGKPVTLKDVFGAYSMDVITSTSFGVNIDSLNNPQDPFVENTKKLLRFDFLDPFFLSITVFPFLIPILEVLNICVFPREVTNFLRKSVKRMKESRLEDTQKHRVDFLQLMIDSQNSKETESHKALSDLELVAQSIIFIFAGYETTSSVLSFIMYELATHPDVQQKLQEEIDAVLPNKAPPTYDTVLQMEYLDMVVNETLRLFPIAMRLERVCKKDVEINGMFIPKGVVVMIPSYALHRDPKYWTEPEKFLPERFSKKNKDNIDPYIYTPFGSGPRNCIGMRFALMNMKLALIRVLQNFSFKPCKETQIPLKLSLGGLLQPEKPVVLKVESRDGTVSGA
T1 sequence (P11712 whole entry): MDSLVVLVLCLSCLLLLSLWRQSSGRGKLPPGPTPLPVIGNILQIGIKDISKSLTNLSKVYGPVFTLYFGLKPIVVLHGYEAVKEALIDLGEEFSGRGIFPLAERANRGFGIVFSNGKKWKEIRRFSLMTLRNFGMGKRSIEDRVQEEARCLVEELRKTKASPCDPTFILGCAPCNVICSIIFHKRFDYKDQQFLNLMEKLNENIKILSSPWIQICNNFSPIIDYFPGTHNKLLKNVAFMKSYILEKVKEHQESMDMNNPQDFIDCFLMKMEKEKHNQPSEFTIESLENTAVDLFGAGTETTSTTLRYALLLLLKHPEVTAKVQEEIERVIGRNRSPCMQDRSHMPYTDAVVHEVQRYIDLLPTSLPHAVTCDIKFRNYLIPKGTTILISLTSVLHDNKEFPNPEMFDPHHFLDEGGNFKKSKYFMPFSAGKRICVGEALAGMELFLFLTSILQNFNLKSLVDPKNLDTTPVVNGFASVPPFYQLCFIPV
T2 sequence (P11712 whole entry): as above
T3 sequence (P10635 whole entry): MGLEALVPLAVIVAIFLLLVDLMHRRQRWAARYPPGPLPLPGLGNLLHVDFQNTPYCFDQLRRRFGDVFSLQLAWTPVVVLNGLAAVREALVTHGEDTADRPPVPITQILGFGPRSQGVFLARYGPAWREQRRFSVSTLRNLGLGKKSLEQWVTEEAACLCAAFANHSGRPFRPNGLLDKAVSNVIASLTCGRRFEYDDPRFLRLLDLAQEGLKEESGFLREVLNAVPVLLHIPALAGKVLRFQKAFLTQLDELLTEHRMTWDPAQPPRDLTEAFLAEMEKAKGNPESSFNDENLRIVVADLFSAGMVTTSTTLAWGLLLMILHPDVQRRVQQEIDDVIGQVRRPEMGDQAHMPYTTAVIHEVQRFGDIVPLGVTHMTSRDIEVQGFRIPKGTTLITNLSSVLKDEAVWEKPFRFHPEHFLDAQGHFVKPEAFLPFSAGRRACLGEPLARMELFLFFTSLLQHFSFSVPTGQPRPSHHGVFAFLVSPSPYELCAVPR

As to `CCC[C@@H](NC(=O)N1C(=O)C(CC)(CC)[C@@H]1Oc1ccc(C(=O)N(C)CCN(C)C)cc1)c1ccc(OC)cc1` [Compound #290, reference compound], in [1], the “% Left @ 30 min” value came to 93% and the “% Left @ 60 min” value was found to be 88%. Also, in data set [2], the “% Left @ 30 min” value stood at 100% and the “% Left @ 60 min” value is listed as 102%. Besides, in [3], the “% Left @ 30 min” value was determined as 99% and the “% Left @ 60 min” value is on record as 93%. In [4], the “% Left @ 30 min” value was 90% and the “% Left @ 60 min” value was determined as 67%. Besides, the IC50 in [5] is 25 µM. Also, the IC50 in data set [6] was greater than 8 µM. Further, the half-maximal inhibitory concentration (IC50) in data set [7] is greater than 8 µM. Further, the “CYP-3A4 Induction % of Rifampicin response @ 10 μM” value (“CYP-3A4 Induction %” for short) in [8] turned out to be 6%. Besides, in data set [9] (Sprague-Dawley, in vivo), the F was 29%, the Vd was 14.5 L/kg, the clearance was found to be 114 mL/min/kg and the half-life was 120 min. In addition, in [9] (in vivo), the “AUCN, i.v. dosing @ 1 mpk” value is on record as 0.28 μMhrkg/mg and the “AUCN, p.o. dosing @ 2 mpk” value came out at 0.081 μMhrkg/mg. Also, in data set [10], the mortality result was “⅕”; the “NO Effect Level (NOEL)” value is listed as 100 mpk/day; the “Dose limiting toxicity assessment, 750 mpk” value is reported as “Significant toxicity observed”; the “physical signs of toxicity” value was “salivation”. Moreover, in data set [10] (25 mg/kg), the “Dose limiting toxicity assessment, 25 mpk” value is on record as “no adverse effects”. Also, the “Dose limiting toxicity assessment, 100 mpk” value in data set [10] (100 mg/kg) was “no adverse effects”. In [11], the “P450 CYP-3A4 Time-Dependent Inhibition rate @ 10 μM (#1)” value came to 0.017 min⁻¹, the “P450 CYP-3A4 Time-Dependent Inhibition rate @ 10 μM (#2)” value is 0.008 min⁻¹ and the “P450 CYP-3A4 Time-Dependent Inhibition rate @ 50 μM” value stood at 0.018 min⁻¹. In data set [12], the IC50 was greater than 8 µM.
As to `CCC[C@@H](NC(=O)N1C(=O)C(CC)(CC)[C@@H]1Oc1ccc(C(=O)N(CC)CCN(C)C)cc1)c1ccc(OC(F)(F)F)cc1` [Example 1, 2-(S)-[4-(((2-(Dimethylamino)ethyl)ethylamino)carbonyl)phenoxy]-3,3-diethyl-N-[1-(R)-(4-(trifluoromethoxy)phenyl)butyl]-4-oxo-1-azetidinecarboxamide], in data set [1], the “% Left @ 30 min” value was 92% and the “% Left @ 60 min” value is recorded as 92%. Further, in data set [2], the “% Left @ 30 min” value was found to be 93% and the “% Left @ 60 min” value worked out at 86%. Besides, in data set [3], the “% Left @ 30 min” value is given as 96% and the “% Left @ 60 min” value turned out to be 94%. Besides, in data set [4], the “% Left @ 30 min” value is reported as 91% and the “% Left @ 60 min” value was 77%. Also, the 50% inhibitory concentration (IC50) in [5] stood at 17 µM. The concentration for half-maximal inhibition (IC50) in data set [6] was greater than 8 µM. For the same compound, in [7], the IC50 is greater than 8 µM. In data set [8], the “CYP-3A4 Induction %” value came to 5%. In data set [9] (Sprague-Dawley, in vivo), this compound showed an F of 25%, a Vd of 11 L/kg, a clearance of 42 mL/min/kg and a half-life of 186 min. Also, in data set [9] (in vivo), the “AUCN, i.v. dosing @ 1 mpk” value amounted to 0.65 μMhrkg/mg and the “AUCN, p.o. dosing @ 2 mpk” value worked out at 0.16 μMhrkg/mg. Besides, in [10], the mortality entry is reported as “⅖”; the “NO Effect Level (NOEL)” value came to 100 mpk/day; the “Dose limiting toxicity assessment, 750 mpk” value is “Significant toxicity observed”; the “physical signs of toxicity” value is recorded as “salivation”. In addition, in data set [10] (25 mg/kg), the “Dose limiting toxicity assessment, 25 mpk” value is listed as “no adverse effects”. In addition, in data set [10] (listed as xample 1, 25 mg/kg), the “Dose limiting toxicity assessment, 25 mpk” value is given as “No effects”. Further, the “Dose limiting toxicity assessment, 100 mpk” value in data set [10] (100 mg/kg) was “no adverse effects”. Moreover, the “Dose limiting toxicity assessment, 100 mpk” value in [10] (listed as xample 1, 100 mg/kg) is “No effects”. For the same compound, in data set [11], the “P450 CYP-3A4 Time-Dependent Inhibition rate @ 10 μM (#1)” value worked out at 0.005 min⁻¹, the “P450 CYP-3A4 Time-Dependent Inhibition rate @ 10 μM (#2)” value was 0.008 min⁻¹ and the “P450 CYP-3A4 Time-Dependent Inhibition rate @ 50 μM” value came out at 0.018 min⁻¹. Also, the IC50 in data set [12] is greater than 8 µM.
Take `CCC[C@@H](NC(=O)N1C(=O)C(CC)(CC)[C@@H]1Oc1ccc(C(=O)N(CC)CCN(C)C)cc1)c1ccc(C(F)(F)F)cc1` [Example 3, 2-(S)-[4-(((2-(Dimethylamino)ethyl)ethylamino)carbonyl)phenoxy]-3,3-diethyl-N-[1-(R)-(4-(trifluoromethyl)phenyl)butyl]-4-oxo-1-azetidinecarboxamide]: the IC50 in [5] was determined as 8.1 µM. In addition, the “CYP-3A4 Induction %” value in [8] is listed as 0%. In data set [9] (Sprague-Dawley, in vivo), this compound gave an F of 28% and a clearance of 113 mL/min/kg. The Vd in [9] (Sprague-Dawley, in vivo, i.v. 1 mpk, mono-L-malic acid salts, read-out: VDss) is 29 L/kg. The half-life in data set [9] (Sprague-Dawley, in vivo, i.v. 1 mpk, mono-L-malic acid salts, read-out: t1/2 (converted)) was 222 min. Besides, in [9] (in vivo), the “AUCN, i.v. dosing @ 1 mpk” value amounted to 0.24 μMhrkg/mg and the “AUCN, p.o. dosing @ 2 mpk” value amounted to 0.069 μMhrkg/mg. The compound also returned a F in data set [9] (oral bioavailability, p.o. 2 mpk vs i.v. 1 mpk) of 28%. For the same compound, the “P450 CYP-3A4 Time-Dependent Inhibition rate @ 10 μM (#1)” value in data set [11] turned out to be 0.014 min⁻¹.
